Results from patent US7514438B2, “Melanin concentrating hormone receptor antagonist” (Amgen, Inc., priority 2003, dated 2009).
Read-outs that look alike come from different tables or passages of the source.

What was measured:
[1] = target: T1, rat MCH 1 receptor (rMCH1R) (Rattus norvegicus, UniProt P97639); experiment: 125I-MCH ligand binding assay, rMCH; conditions: HEK 293 membranes, 0.2 nM 125I native-MCH, read-out: IC50 in the rMCH binding assay
T1 construct: expressed in transfected cells; host or cells: HEK 293 (membranes)
T1 sequence (P97639 whole entry): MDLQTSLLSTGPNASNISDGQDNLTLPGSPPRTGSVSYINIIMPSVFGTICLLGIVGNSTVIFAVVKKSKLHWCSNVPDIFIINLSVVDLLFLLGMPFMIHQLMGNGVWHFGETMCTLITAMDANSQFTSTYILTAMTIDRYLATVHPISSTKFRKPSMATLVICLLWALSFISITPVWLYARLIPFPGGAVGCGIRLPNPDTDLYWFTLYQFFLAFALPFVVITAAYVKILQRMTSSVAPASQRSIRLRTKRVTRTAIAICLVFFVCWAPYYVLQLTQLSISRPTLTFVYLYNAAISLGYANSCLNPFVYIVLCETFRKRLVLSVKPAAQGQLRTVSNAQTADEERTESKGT
In short: (§1)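 HEK293 membranes expressing rat or human MCH1R (100 µg tissue) were incubated for 90 min at 30 °C with 0.2 nM 125I-native-MCH and test compound in HEPES/MgCl2/BSA buffer with protease inhibitors, pH 7.4. Non-specific binding used 1 µM cold MCH. Filter-bound radioactivity gave IC50 by nonlinear regression.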

rat MCH1 receptor [2] = target: T2, rat MCH1 receptor (Rattus norvegicus, UniProt P97639); experiment: rMCH FLIPR calcium mobilization assay (CHOK1-Gqi cells); type: cell-based; parameters: expressed in transfected cells; host or cells: CHOK1-Gqi; conditions: CHOK1-Gqi cells, rat MCH1 receptor, read-out: Ki in the rMCH FLIPR assay
T2 sequence (P97639 whole entry): as above
Procedure: Pharmacological analyses were conducted using either a HT-PS100 device (Axiom Biotechnologies, San Diego, Calif.), which provides high-resolution dose-response fluorometric measurements of [Ca^++]i mobilization, or using a FLIPR® device (Molecular Devices, Sunnyvale, Calif.).
Materials: Pharmacological analysis was conducted using a FLIPR® device (Molecular Devices, Sunnyvale, Calif.). CHOK1-Gqi cells were stably transfected with the rat MCH1 receptor and maintained under G418 antibiotic pressure. FLIPR® assay buffer consisted of phenol red-free DMEM+2.5 mM probenecid. […]. Test compounds were prepared as 10 mM stocks in 100% DMSO and diluted to a top end working concentration of 10 μM in 96 well black, flat bottom, collagen-I coated plates (Becton Dickinson, Bedford, Mass.).
Methods: CHOK1-Gqi cells stably expressing MCH1R were maintained in Dulbeco's modified Eagle's medium (GIBCO/Life Technologies, Rockville, Md.) supplemented with 2 mM glutamine and 10% dialyzed fetal bovine serum (HyCLone, Logan, Utah) at 37° C., 5% CO2. Cells were harvested by 10′ treatment with Versene (GIBCO/Life Technologies) followed by trituration, washing twice with cold (4° C.) hybridoma medium (Serum/Protein free, with L-glutamine, sodium bicarbonate, MOPS buffer) (Sigma-Aldrich Corp, St. Louis, Mo.) and replated onto 96 well black, flat bottom, collagen-I coated plates to a density of 10,000 cells/well. The cells were then loaded with the fluorescent calcium indicator Fura-2 (Molecular Probes, Eugene, Oreg.) at 1.6 μM for 60′ at room temperature. The loaded cells were then washed twice with 90 μl/well of wash buffer (1×HBSS, 20 mM HEPES, 2.5 mM probenecid).
Receptor-stimulated intracellular calcium responses were detected using FLIPR® by monitoring increases in the Fura-2 fluorescence response.
Test compounds were screened for MCH1R activity in the FLIPR® for both agonist and antagonist action. Agonist mode challenges were conducted at a maximum gradient concentration of 1 μM. Antagonist activity was tested by 10 min pre-incubation of cells at a compound concentration of defined to be 300× the EC50 of MCH (typically 1 μM), with subsequent introduction of MCH at a concentration 5-fold of EC50 as determined in preliminary experiments. […].
Several fixed concentrations of antagonist compounds were prepared in 10-fold increments, and presented to the cells in a gradient of increasing MCH concentration. Values for compound pA2 were calculated by linear regression of MCH EC50s as a function of antagonist concentration.

human MCH receptor = target: T3, human MCH receptor (Homo sapiens, UniProt Q99705); experiment: hMCH FLIPR calcium mobilization assay; type: cell-based; conditions: read-out: Ki in the hMCH FLIPR assay
T3 construct: expressed in transfected cells
T3 sequence (Q99705 whole entry): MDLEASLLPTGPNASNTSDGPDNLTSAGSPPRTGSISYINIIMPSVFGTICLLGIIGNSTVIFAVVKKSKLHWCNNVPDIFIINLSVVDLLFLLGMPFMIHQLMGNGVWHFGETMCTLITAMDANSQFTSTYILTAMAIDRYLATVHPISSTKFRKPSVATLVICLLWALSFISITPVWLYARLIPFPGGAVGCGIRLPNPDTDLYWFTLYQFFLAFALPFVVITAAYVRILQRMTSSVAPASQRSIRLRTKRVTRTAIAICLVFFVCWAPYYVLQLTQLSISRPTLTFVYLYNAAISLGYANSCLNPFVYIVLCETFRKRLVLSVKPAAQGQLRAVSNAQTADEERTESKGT

[3] = target: T4, human MCH 1 receptor (hMCH1R) (Homo sapiens, UniProt Q99705); experiment: 125I-MCH ligand binding assay, hMCH; conditions: HEK 293 membranes, 0.2 nM 125I native-MCH, read-out: IC50 in the hMCH binding assay
T4 construct: expressed in transfected cells; host or cells: HEK 293 (membranes)
T4 sequence (Q99705 whole entry): as above
In short: as §1

rat MCH1 receptor [4] = target: T2, rat MCH1 receptor; experiment: HT-PS100 calcium mobilization functional assay; type: cell-based; parameters: expressed in transfected cells; conditions: HEK 293 cells stably transfected with rat MCH1 receptor; 100 nM or less list; read-out: Ki in the HT-PS100 assay

Compound | IC50 ([1]; 100 μM or less list) [µM] | Ki (rat MCH1 receptor [2]; 100 μM or less list) [µM] | Ki (human MCH receptor; 100 nM or less list) [µM] | Ki (human MCH receptor; 100 μM or less list) [µM] | IC50 ([3]; 100 nM or less list) [µM] | IC50 ([3]; 100 μM or less list) [µM] | Ki (rat MCH1 receptor [4]) [µM] | IC50 ([1]; 100 nM or less list) [µM] | Ki (rat MCH1 receptor [2]; 100 nM or less list) [µM]
Cc1cccc(C)c1-n1nnnc1[C@H](c1ccccc1)N1CCN(C/C=C/c2ccccc2)CC1 (racemic) [Compound 4, 1-{[1-(2,6-dimethyiphenyl)-1H-tetrazol-5-yl]phenylmethyl}-4-(3-phenylallyl)piperazine] | ≤ 100 | ≤ 100 | ≤ 0.1 | ≤ 100 | ≤ 0.1 | ≤ 100 | ≤ 0.1 |  | 
Cc1cccc(C)c1-n1nnnc1[C@H](c1cccc(F)c1)N1CCN(C/C=C/c2ccccc2)CC1 (racemic) [Compound 48, 1-[[1-(2,6-dimethyiphenyl)-1H-tetrazol-5-yl]-(3-fluorophenyl)methyl]-4-(3-phenylallyl)piperazine] | ≤ 100 | ≤ 100 | ≤ 0.1 | ≤ 100 |  | ≤ 100 | ≤ 0.1 |  | 
Cc1cccc(C)c1-n1nnnc1[C@H](c1cccs1)N1CCN(C/C=C/c2ccccc2)CC1 (racemic) [Compound 53, 1-{[1-(2,6-dimethyiphenyl)-1H-tetrazol-5-yl]thiophen-2-ylmethyl}-4-(3-phenylallyl)piperazine] | ≤ 100 | ≤ 100 | ≤ 0.1 | ≤ 100 |  | ≤ 100 | ≤ 0.1 |  | 
Cc1ccc([C@@H](c2nnnn2-c2c(C)cccc2C)N2CCN(C/C=C/c3ccccc3)CC2)cc1 (racemic) [Compound 55, 1-{[1-(2,6-dimethyiphenyl)-1H-tetrazol-5-yl]-p-tolylmethyl]-4-(3-phenylallyl)piperazine] | ≤ 100 | ≤ 100 | ≤ 0.1 | ≤ 100 | ≤ 0.1 | ≤ 100 | ≤ 0.1 |  | 
Cc1cccc(C)c1-n1nnnc1[C@H](c1cccc(C(F)(F)F)c1)N1CCN(C/C=C/c2ccccc2)CC1 (racemic) [Compound 56, 1-[[1-(2,6-dimethyiphenyl)-1H-tetrazol-5-yl]-(3-trifluoromethyiphenyl)methyl]-4-(3-phenylallyl)piperazine] | ≤ 100 | ≤ 100 | ≤ 0.1 | ≤ 100 | ≤ 0.1 | ≤ 100 | ≤ 0.1 | ≤ 0.1 | ≤ 0.1
Cc1cccc(C)c1-n1nnnc1[C@H](c1ccc(Cl)cc1)N1CCN(C/C=C/c2ccccc2)CC1 (racemic) [Compound 57, 1-{(4-chlorophenyl)-[1-(2,6-dimethyiphenyl)-1H-tetrazol-5-yl]methyl}-4-(3-phenylallyl)piperazine] | ≤ 100 | ≤ 100 |  | ≤ 100 |  | ≤ 100 | ≤ 0.1 |  | 
Cc1cccc(C)c1-n1nnnc1[C@H](c1ccc(Cl)c(Cl)c1)N1CCN(C/C=C/c2ccccc2)CC1 (racemic) [Compound 60, 1-{(3,4-dichlorophenyl)-[1-(2,6-dimethylphenyl)-1H-tetrazol-5-yl]methyl}-4-(3-phenylallyl)piperazine] | ≤ 100 | ≤ 100 |  | ≤ 100 |  | ≤ 100 | ≤ 0.1 |  | 
Cc1cccc(C)c1-n1nnnc1[C@H](c1ccc(-c2ccccc2)cc1)N1CCN(C/C=C/c2ccccc2)CC1 (racemic) [Compound 64, 1-{biphenyl-4-yl-[1-(2,6-dimethylphenyl)-1H-tetrazol-5-yl]methyl}-4-(3-phenylallyl)piperazine] | ≤ 100 | ≤ 100 |  |  | ≤ 0.1 | ≤ 100 | ≤ 0.1 |  | 
Cc1cccc(C)c1-n1nnnc1[C@H](c1ccc(Oc2ccccc2)cc1)N1CCN(C/C=C/c2ccccc2)CC1 (racemic) [Compound 76, 1-[[1-(2,6-dimethylphenyl)-1H-tetrazol-5-yl]-(4-phenoxyphenyl)methyl]-4-(3-phenylallyl)piperazine] | ≤ 100 | ≤ 100 |  |  | ≤ 0.1 | ≤ 100 | ≤ 0.1 |  | 
COc1ccc(/C=C/CN2CCN([C@@H](c3cccc(C(F)(F)F)c3)c3nnnn3-c3c(C)cccc3C)CC2)cc1 (racemic) [Compound 147, 1-[[1-(2,6-dimethylphenyl)-1H-tetrazol-5-yl]-(3-trifluoromethylphenyl)methyl]-4-[3-(4-methoxyphenyl)allyl]piperazine] | ≤ 100 | ≤ 100 |  | ≤ 100 |  | ≤ 100 |  |  | 
Cc1cccc(C)c1-n1nnnc1[C@H](c1cccc(C(F)(F)F)c1)N1CCN(Cc2cc3ccccc3n2C)CC1 (racemic) [Compound 148, 2-{4-[[1-(2,6-dimethylphenyl)-1H-tetrazol-5-yl]-(3-trifluoromethylphenyl)methyl]piperazin-1-ylmethyl}-1-methyl-1H-indole] | ≤ 100 | ≤ 100 |  | ≤ 100 |  | ≤ 100 |  |  | 
Cc1cccc(C)c1-n1nnnc1[C@H](c1cccc(C(F)(F)F)c1)N1CCN(Cc2c[nH]c3ccccc23)CC1 (racemic) [Compound 150, 3-{4-[[1-(2,6-dimethylphenyl)-1H-tetrazol-5-yl]-(3-trifluoromethylphenyl)methyl]piperazin-1-ylmethyl}-1H-indole] | ≤ 100 | ≤ 100 |  | ≤ 100 |  | ≤ 100 |  |  | 
Cc1cccc(C)c1-n1nnnc1[C@H](c1cccc(C(F)(F)F)c1)N1CCN(C/C=C/c2ccccc2O)CC1 (racemic) [Compound 151, 2-(3-{4-[[1-(2,6-dimethylphenyl)-1H-tetrazol-5-yl]-(3-trifluoromethylphenyl)methyl]piperazin-1-yl}propenyl)phenol] | ≤ 100 | ≤ 100 |  | ≤ 100 |  | ≤ 100 |  |  | 
Cc1cccc(C)c1-n1nnnc1[C@H](c1cccc(C#N)c1)N1CCN(C/C=C/c2ccccc2)CC1 (stereo in doubt) [Compound 133, 3-{[1-(2,6-dimethylphenyl)-1H-tetrazol-5-yl]-[4-(3-phenylallyl)piperazin-1-yl]methyl}benzonitrile] | ≤ 100 | ≤ 100 |  | ≤ 100 |  | ≤ 100 |  |  | 
Cc1cccc(C)c1-n1nnnc1[C@@H](c1ccc(-n2ccnc2)cc1)N1CCN(C/C=C/c2ccccc2)CC1 (stereo in doubt) [Compound 134, 1-[[1-(2,6-dimethylphenyl)-1H-tetrazol-5-yl]-(4-imidazol-1-ylphenyl)methyl]-4-(3-phenylallyl)piperazine] | ≤ 100 | ≤ 100 |  | ≤ 100 | ≤ 0.1 | ≤ 100 |  | ≤ 0.1 | 
Cc1cccc(C)c1-n1nnnc1[C@H](c1ccc(-n2ccnc2)cc1)N1CCN(C/C=C/c2ccccc2)CC1 (stereo in doubt) [Compound 135, 1-[[1-(2,6-dimethylphenyl)-1H-tetrazol-5-yl]-(4-imidazol-1-ylphenyl)methyl]-4-(3-phenylallyl)piperazine] | ≤ 100 | ≤ 100 |  | ≤ 100 |  | ≤ 100 |  |  | 
